Reference: PubChem BioAssay AID588698 (Southern Research Specialized Biocontainment Screening …, 2011)
Inconclusive results are not listed. Active and inactive are the calls of the source.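 The calls were made as follows: active = inhibition of 30% or more at any tested concentration; inactive = the rest, inconclusive results apart.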

target: M1-family alanyl aminopeptidase (Plasmodium falciparum 3D7); assay: malaria M1 alanyl aminopeptidase inhibitors – biochemical, QFRET, H-Leu-NHMec substrate, selectivity assay for PfM17LAP inhibitor project, dose response (AID 588698); conditions: recombinant PfM1AAP, H-Leu-NHMec fluorogenic substrate cleavage

| IC50 | SMILES |
| --- | --- |
| 79.4 µM | O=C(Cc1cccc2ccccc12)NO |
| 33.7 µM | O=C(Cc1ccc2ccccc2c1)NO |

same assay, conditions: recombinant PfM1AAP, H-Leu-NHMec fluorogenic substrate cleavage; at 100 µM (top of the series)

| inhibition | SMILES |
| --- | --- |
| inactive | CC1=C(C)CC(C(=O)Nc2ccc(Oc3ccc(Cl)cc3)cc2)C(C(=O)O)C1 (stereo not drawn) |
| inactive | COC(=O)c1c(NC(=O)C2CC=CCC2C(=O)O)sc(C)c1-c1ccc(C)cc1 (stereo not drawn) |
| inactive | CC1CCc2sc(C(=O)Nc3cccc4c3C(=O)NC4)cc2C1 (stereo not drawn) |
| inactive | COC(=O)c1c(NC(=O)c2ccccc2C(=O)O)sc2c1CCCC2 |
| inactive | CCC(C)(C)C1CCc2c(sc(NC(=O)C3CC(C)=C(C)CC3C(=O)O)c2C(=O)OC)C1 (stereo not drawn) |
| inactive | O=C(CSc1nccc(=O)[nH]1)Nc1ccc(N2CCOCC2)cc1 |
| inactive | O=C1OCCC1Sc1nnc(NC2CCCCC2)s1 (stereo not drawn) |
| inactive | COc1cc(NC(=O)c2ccc(-c3ccccc3)cc2)c(C(=O)O)cc1OC |
| inactive | CC(C)C[C@H](N)C(=O)NO |
| inactive | COC(=O)c1ccccc1NC(=O)c1ccc2c(Cl)c3c(nc2c1)CCC3 |
| inactive | O=C(CSc1nccc(=O)[nH]1)Nc1ccc(Oc2ccccc2)cc1 |
| inactive | COc1ccc(OCCC(=O)NO)cc1 |
| inactive | Cc1cc(=O)[nH]c(SCC(=O)Nc2ccccc2)n1 |
| inactive | NC(N)=NCCC[C@H](N)C(=O)NO |
| inactive | O=C(Nc1ccc(Cl)cc1)Nc1ccccc1C(=O)O |
| inactive | CC1=C(C)CC(C(=O)Nc2nc(-c3cc(C)ccc3C)c(C)s2)C(C(=O)O)C1 (stereo not drawn) |
| inactive | O=C(O)c1ccccc1C(=O)Nc1nc2c(s1)CCCC2 |
| inactive | Cc1cc(SCC(=O)Nc2ccccc2C(=O)O)nc2ccccc12 |
| inactive | O=C(CSc1nc(O)cc(=O)[nH]1)Nc1ccccc1 |
| inactive | CCn1c2ccccc2c2cc(NC(=O)CSc3nc(C)cc(=O)[nH]3)ccc21 |
| inactive | COc1ccc(-c2nnc(NC(=O)C3CC(C)=C(C)CC3C(=O)O)s2)cc1 (stereo not drawn) |
| inactive | COC(=O)c1cc(OC)c(OC)cc1NC(=O)c1sc2nc(C)ccc2c1N |
| inactive | COC(=O)c1c(NC(=O)C2CCCCC2C(=O)O)sc2c1CCC(c1ccccc1)C2 (stereo not drawn) |
| inactive | COC(=O)c1ccccc1NC(=O)c1cc2cc3ccc(C)cc3nc2s1 |
| inactive | COc1cc(NC(=O)CSc2ccccc2)c(C(=O)O)cc1OC |
| inactive | Cc1ccc(NC(=O)CSc2nc(O)cc(=O)n2Cc2ccccc2)cc1 |
